Here are results for 43 molecules from BindingDB's records for doi:10.7270/Q2H70D5W (University of Pittsburgh, 2007).

One may read the IC50 as the point on the concentration scale where inhibition reaches its midpoint. A high value points to weaker potency in that assay.

The experiment addresses Gag-Pol polyprotein (Human immunodeficiency virus type 1 group M subtype B (isolate HXB2), UniProt P04585). The experiment is described as follows: concentration-response of HIV-1 RNase H blockers – biochemical, probe assessment, dose response (AID 652). The settings on record: pH 8; 23 °C.
For the molecule `O=C1CCCC(=O)C1C(C#Cc1ccccc1)C1C(=O)CCCC1=O` [3-hydroxy-2-[1-(2-hydroxy-6-keto-cyclohexen-1-yl)-3-phenyl-prop-2-ynyl]cyclohex-2-en-1-one], the IC50 stood at 1.08 µM.
Next, `O=C(O)c1ccc2c(c1)NC(=O)C(N1CCCC1)S2` (stereo not drawn) [3-keto-2-pyrrolidino-4H-1,4-benzothiazine-6-carboxylic acid]: 3.69 µM; `CC(C)CN(C(=O)COC(=O)c1ccc2c(c1)NC(=O)CS2)C1CCS(=O)(=O)C1` (stereo not drawn) [3-keto-4H-1,4-benzothiazine-6-carboxylic acid [2-[(1,1-diketothiolan-3-yl)-isobutyl-amino]-2-keto-ethyl] ester]: 30.3 µM; `COc1cc(OC)c(C2CC(=O)N3CN(C)CSC3=C2C#N)cc1OC` (stereo not drawn) [3-methyl-6-oxidanylidene-8-(2,4,5-trimethoxyphenyl)-2,4,7,8-tetrahydropyrido[2,1-b][1,3,5]thiadiazine-9-carbonitrile]: 14.5 µM.
The figure for `Cc1ccc(Cn2c(SCC(C)C)nc3c2c(=O)[nH]c(=O)n3C)cc1` [3-methyl-7-[(4-methylphenyl)methyl]-8-(2-methylpropylthio)purine-2,6-dione] is 1.71 µM.
`C=CCSc1nc2c(c(=O)[nH]c(=O)n2C)n1C(C)C` [3-methyl-7-propan-2-yl-8-prop-2-enylsulfanylpurine-2,6-dione] showed an IC50 above 50 µM.
`CC1CC(C)(C)NC(=S)S1` (stereo not drawn) [4,4,6-trimethyl-1,3-thiazinane-2-thione] had an IC50 of 5.24 µM.
The figure for `CCCc1cc(C(=O)Nc2sc(C)c(C)c2C(=O)OCC)no1` [4,5-dimethyl-2-[(5-propylisoxazole-3-carbonyl)amino]thiophene-3-carboxylic acid ethyl ester] is 2.53 µM.
As to `C=CCc1c(C)nc(S)c(C#N)c1C` [4,6-dimethyl-5-prop-2-enyl-2-sulfanylidene-1H-pyridine-3-carbonitrile], the IC50 worked out at 7.25 µM.
With `Cc1ccc(-n2nc(C)c3c2NC(=O)CSC3c2ccc3c(c2)OCO3)cc1` (stereo not drawn) [4-(1,3-benzodioxol-5-yl)-3-methyl-1-(4-methylphenyl)-2,4-dihydropyrazolo[3,4-e][1,4]thiazepin-7-one], the midpoint of inhibition, the IC50, lay at 5.2 µM.
The figure for `CCOC(=O)c1c(C2COc3ccccc3O2)csc1NC(=O)c1ccco1` (stereo not drawn) [4-(2,3-dihydro-1,4-benzodioxin-3-yl)-2-(2-furoylamino)thiophene-3-carboxylic acid ethyl ester] is 0.654 µM; for `COc1ccc(Cn2nnnc2C(c2cccnc2)N2CCN(c3ccc(O)cc3)CC2)cc1` (stereo not drawn) [4-(4-{[1-(4-Methoxy-benzyl)-1H-tetrazol-5-yl]-pyridin-3-yl-methyl}-piperazin-1-yl)-phenol] it is above 50 µM; for `CCn1c2ccccc2c2nc3cc(S(=O)(=O)N4CCOCC4)ccc3nc21` [4-(6-ethylindolo[2,3-b]quinoxalin-2-yl)sulfonylmorpholine] it is 1.02 µM.
The molecule `COc1cccc(-c2nnc(NC(=O)c3ccc(S(=O)(=O)N(CC(C)C)CC(C)C)cc3)o2)c1` [4-(diisobutylsulfamoyl)-N-[5-(3-methoxyphenyl)-1,3,4-oxadiazol-2-yl]benzamide] displayed an IC50 of 4.77 µM.
Molecule `CCCN(CCC)S(=O)(=O)c1ccc(C(=O)Nc2nnc(-c3cccc(OC)c3)o2)cc1` [4-(dipropylsulfamoyl)-N-[5-(3-methoxyphenyl)-1,3,4-oxadiazol-2-yl]benzamide] yielded an IC50 of 21.2 µM.
Next, `COc1ccc(OC)c(Nc2nc(-c3ccc(O)c(O)c3)cs2)c1` [4-[2-(2,5-Dimethoxy-phenylamino)-thiazol-4-yl]-benzene-1,2-diol]: 1.48 µM; `O=C(CCCn1c(SCC(=O)c2ccc(O)c(O)c2)nc2ccccc2c1=O)NCC1CCCO1` (stereo not drawn) [4-[2-[2-(3,4-dihydroxyphenyl)-2-oxoethyl]sulfanyl-4-oxoquinazolin-3-yl]-N-(oxolan-2-ylmethyl)butanamide]: 0.879 µM.
Consider `Cc1nc(-c2cccc(S(=O)(=O)N3CCOCC3)c2)cs1` [4-[3-(2-methyl-1,3-thiazol-4-yl)phenyl]sulfonylmorpholine], for which half-maximal inhibition (IC50) was put at 5.96 µM.
Next, `Nc1ccc(-c2nnc(-c3ccc(-c4ccccc4)cc3)o2)cc1` [4-[5-(4-phenylphenyl)-1,3,4-oxadiazol-2-yl]aniline]: 2.71 µM; `Nc1c(S(=O)(=O)c2cccc(Cl)c2)c2c(n1N=CC1=CC(=O)C(=O)C=C1)Nc1ccccc1N2` [4-[[2-azanyl-3-(3-chlorophenyl)sulfonyl-4,9-dihydropyrrolo[3,2-b]quinoxalin-1-yl]iminomethyl]cyclohexa-3,5-diene-1,2-dione]: 0.266 µM.
Next, `COc1ccc(N2CCN(Cc3cc(=O)oc4cc5c(cc34)CCCC5)CC2)cc1` [4-[[4-(4-methoxyphenyl)-1-piperazinyl]methyl]-6,7,8,9-tetrahydrobenzo[g][1]benzopyran-2-one]: 4.35 µM; `COc1ccc(N2CCN(Cc3cc(=O)oc4cc(-c5ccccc5)c(O)cc34)CC2)cc1` [4-[[4-(4-methoxyphenyl)piperazin-1-yl]methyl]-6-oxidanyl-7-phenyl-chromen-2-one]: 3.86 µM; `CCN(Cc1ccccc1)S(=O)(=O)c1ccc(C(=O)Nc2nnc(-c3ccccc3OC)o2)cc1` [4-[benzyl(ethyl)sulfamoyl]-N-[5-(2-methoxyphenyl)-1,3,4-oxadiazol-2-yl]benzamide]: 8.96 µM.
Next, `Cc1ccc(-n2c(N)c(C(N)=O)sc2=S)cc1` [4-amino-3-(4-methylphenyl)-2-sulfanylidene-1,3-thiazole-5-carboxamide]: 2.58 µM; `Cc1ccc(-n2c(N)c(C(=O)N3CCCCC3)sc2=S)cc1` [4-amino-3-(4-methylphenyl)-5-(1-piperidinylcarbonyl)-1,3-thiazole-2(3H)-thione]: 2.3 µM.
Take `Cc1ccc(-n2c(N)c(C(=O)N3CCOCC3)sc2=S)cc1` [4-amino-3-(4-methylphenyl)-5-(4-morpholinylcarbonyl)-1,3-thiazole-2(3H)-thione]: the IC50 was determined as 4.9 µM.
Next, `Cc1ccc(-n2c(N)c(C(=O)N3CCN(C)CC3)sc2=S)cc1` [4-amino-3-(4-methylphenyl)-5-[(4-methyl-1-piperazinyl)carbonyl]-1,3-thiazole-2(3H)-thione]: above 50 µM; `O=C(NC(=O)c1ccc(Cl)cc1)Nc1cc(N2CCCCC2)ncn1` [4-chloranyl-N-[(6-piperidin-1-ylpyrimidin-4-yl)carbamoyl]benzamide]: 8.45 µM; `CCOC(=O)c1sc(NC(=O)CSc2nnc(Cc3ccccc3)o2)c(C#N)c1C` [4-cyano-3-methyl-5-[[1-oxo-2-[[5-(phenylmethyl)-1,3,4-oxadiazol-2-yl]thio]ethyl]amino]-2-thiophenecarboxylic acid ethyl ester]: 0.094 µM.
Next, `CCOc1ccc(S(=O)(=O)Nc2cc(Sc3nnc[nH]3)c3oc(=O)sc3c2)cc1` [4-ethoxy-N-[2-oxo-7-(1H-1,2,4-triazol-5-ylsulfanyl)-1,3-benzoxathiol-5-yl]benzenesulfonamide]: 2.53 µM.
The figure for `COc1ccccc1CNC(=O)c1cc2c(=O)n(C)c3ccccc3c2n1C` [4-keto-1,5-dimethyl-N-o-anisyl-pyrrolo[3,2-c]quinoline-2-carboxamide] is 24.7 µM.
Molecule `COC(=O)c1ccc2c(c1)N(Cc1nc(-c3cccc(C)c3)oc1C)C(=O)C1CCCN21` (stereo not drawn) [4-keto-5-[[5-methyl-2-(m-tolyl)oxazol-4-yl]methyl]-1,2,3,3a-tetrahydropyrrolo[1,2-a]quinoxaline-7-carboxylic acid methyl ester] displayed an IC50 of 5.97 µM.
Regarding `COc1ccc(S(=O)(=O)Nc2ccc(O)c3ccccc23)cc1` [4-methoxy-N-(4-oxidanylnaphthalen-1-yl)benzenesulfonamide], the IC50 turned out to be 4.07 µM.
The figure for `Cc1sc2nc(C(C)Nc3ccccc3N3CCOCC3)[nH]c(=O)c2c1C` (stereo not drawn) [5,6-dimethyl-2-[1-[2-(4-morpholinyl)anilino]ethyl]-3H-thieno[2,3-d]pyrimidin-4-one] is 14.4 µM; for `Cc1cccc(Nc2nnc(S)s2)c1C` [5-(2,3-dimethylanilino)-3H-1,3,4-thiadiazole-2-thione] it is 3.59 µM; for `N#Cc1c(NC(=O)c2ccc(Cn3cc(Br)cn3)o2)sc2c1CCCCCC2` [5-[(4-bromanylpyrazol-1-yl)methyl]-N-(3-cyano-4,5,6,7,8,9-hexahydrocycloocta[b]thiophen-2-yl)furan-2-carboxamide] it is 1.38 µM.
Next, `Nc1nnc(CSCc2ccc(F)cc2)s1` [5-[(4-fluorophenyl)methylsulfanylmethyl]-1,3,4-thiadiazol-2-amine]: above 50 µM.
Next, `COC(=O)c1ccc2c(c1)N(Cc1nc(-c3ccc(Cl)cc3)oc1C)C(=O)C1CCCN21` (stereo not drawn) [5-[[2-(4-chlorophenyl)-5-methyl-4-oxazolyl]methyl]-4-oxo-1,2,3,3a-tetrahydropyrrolo[1,2-a]quinoxaline-7-carboxylic acid methyl ester]: 2.86 µM.
Molecule `CCOC(=O)c1c(N)sn(-c2ccccc2C)c1=S` [5-amino-2-(2-methylphenyl)-3-sulfanylidene-4-isothiazolecarboxylic acid ethyl ester] displayed an IC50 of 2.28 µM.
The figure for `Cc1ccc(NC(=O)Cn2nnc(C(=O)Nc3ccc(C)c(C)c3)c2N)cc1` [5-amino-N-(3,4-dimethylphenyl)-1-[2-(4-methylanilino)-2-oxoethyl]-4-triazolecarboxamide] is 16.4 µM; for `c1ccc2c(c1)OCC(c1nnc3sc(-c4ccc5c(c4)OCO5)nn13)O2` (stereo not drawn) [6-(1,3-benzodioxol-5-yl)-3-(2,3-dihydro-1,4-benzodioxin-3-yl)-[1,2,4]triazolo[3,4-b][1,3,4]thiadiazole] it is 1.46 µM.
In the case of `Fc1ccc(-c2nnc3sc(-c4ccc5c(c4)OCO5)nn23)cc1` [6-(1,3-benzodioxol-5-yl)-3-(4-fluorophenyl)-[1,2,4]triazolo[3,4-b][1,3,4]thiadiazole], inhibition was half-maximal at 3.92 µM (IC50).
Next, `Clc1ccccc1-c1nn2c(-c3ccncc3)nnc2s1` [6-(2-chlorophenyl)-3-(4-pyridinyl)[1,2,4]triazolo[3,4-b][1,3,4]thiadiazole]: 2.7 µM.
